Experimental data as given in PMC9777025, “Silibinin Overcomes EMT-Driven Lung Cancer Resistance to New-Generation ALK Inhibitors” (Cancers, 2022).

What was measured:
[1] = test system: H2228; assay: cells; parameters: species or system H2228/CR, H3122, H3122/CR; MTT cell viability assay, absorbance at 570 nm, IC50 by interpolation; conditions: Homo sapiens, NCI-H2228; without silibinin
Experimental: (§1) 2.5. Cell Viability Assay The cell viability effects of ALK–TKIs and silibinin were determined using the colorimetric MTT (3-4,5-dimethylthiazol-2-yl-2,5-diphenyl-tetrazolium bromide) reduction assay. Dose-response curves to graded concentrations of drugs were plotted as a percentage of the control cell absorbance, which was obtained from control cells containing the vehicle processed simultaneously. For each treatment, cell viability was evaluated using the following equation: (OD570 of the treated sample/OD570 of the untreated sample) × 100. Sensitivity to agents was expressed in terms of the concentrations required for a 50% (IC50) reduction in cell viability. Since the percentage of control absorbance was considered to be the surviving fraction of cells, the IC50 values were defined as the concentration of drug that produced a 50% reduction in control absorbance (by interpolation).

[2] = test system: H3122; assay: cells; parameters: species or system H2228, H2228/CR, H3122/CR; MTT cell viability assay, absorbance at 570 nm, IC50 by interpolation; conditions: Homo sapiens, NCI-H3122; without silibinin
Experimental: as §1

[3] = test system: T1, H2228/CR; assay: cells; parameters: species or system H3122, H3122/CR; MTT cell viability assay, absorbance at 570 nm, IC50 by interpolation; conditions: Homo sapiens, NCI-H2228; without silibinin
T1 construct: crizotinib-resistant H2228
Experimental: as §1

[4] = test system: T2, H3122/CR; assay: cells; parameters: species or system H2228, H2228/CR; MTT cell viability assay, absorbance at 570 nm, IC50 by interpolation; conditions: Homo sapiens, NCI-H3122; without silibinin
T2 construct: crizotinib-resistant H3122
Experimental: as §1

[5] = target: T3, TGFβR2 (Homo sapiens, UniProt P37173); assay: LanthaScreen Eu kinase binding assay (TR-FRET tracer displacement), 10-point titration
T3 construct: gene TGFBR2
T3 sequence (P37173 23-567): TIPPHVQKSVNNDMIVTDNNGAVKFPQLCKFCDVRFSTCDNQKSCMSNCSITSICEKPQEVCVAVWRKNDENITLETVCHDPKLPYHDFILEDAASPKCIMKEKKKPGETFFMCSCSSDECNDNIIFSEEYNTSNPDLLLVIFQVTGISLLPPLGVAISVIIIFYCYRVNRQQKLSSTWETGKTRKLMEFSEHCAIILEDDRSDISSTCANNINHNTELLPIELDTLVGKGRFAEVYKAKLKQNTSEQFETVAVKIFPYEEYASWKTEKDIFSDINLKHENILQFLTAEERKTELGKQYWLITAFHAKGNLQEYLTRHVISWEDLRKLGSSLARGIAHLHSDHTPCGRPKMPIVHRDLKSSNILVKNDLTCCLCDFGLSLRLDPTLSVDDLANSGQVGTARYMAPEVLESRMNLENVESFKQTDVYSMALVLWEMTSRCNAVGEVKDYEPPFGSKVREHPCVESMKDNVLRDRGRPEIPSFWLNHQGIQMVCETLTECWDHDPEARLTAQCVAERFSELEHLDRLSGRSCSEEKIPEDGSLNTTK

[6] = target: T4, TGFβR1/ALK5 (Homo sapiens, UniProt P36897); assay: as above
T4 construct: gene TGFBR1
T4 sequence (P36897 34-503): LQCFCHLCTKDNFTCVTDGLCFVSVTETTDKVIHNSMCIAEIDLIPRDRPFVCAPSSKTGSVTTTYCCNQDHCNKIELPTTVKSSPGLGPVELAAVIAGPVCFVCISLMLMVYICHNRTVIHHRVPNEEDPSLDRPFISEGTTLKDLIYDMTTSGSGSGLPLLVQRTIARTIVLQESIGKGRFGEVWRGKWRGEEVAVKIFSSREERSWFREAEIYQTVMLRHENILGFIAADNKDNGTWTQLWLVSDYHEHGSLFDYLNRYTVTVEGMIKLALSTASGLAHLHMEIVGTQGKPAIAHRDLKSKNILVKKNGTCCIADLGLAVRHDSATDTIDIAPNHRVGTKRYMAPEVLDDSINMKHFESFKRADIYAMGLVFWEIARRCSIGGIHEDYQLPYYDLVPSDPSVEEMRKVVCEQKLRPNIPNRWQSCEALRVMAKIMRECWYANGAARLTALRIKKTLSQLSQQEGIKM

With `COc1cc(N2CCC(N3CCN(C)CC3)CC2)ccc1Nc1ncc(Cl)c(Nc2ccccc2P(C)(C)=O)n1` [brigatinib] the IC50 [1] was 500 nM, the IC50 [2] was 20 nM and the IC50 [3] was 3.8 µM. The IC50 [4] was 120 nM.
In the case of `COc1cc(C2Oc3cc([C@H]4Oc5cc(O)cc(O)c5C(=O)[C@@H]4O)ccc3OC2CO)ccc1O` (mixture of isomers) [silibinin], the IC50 [5] is reported as 56 µM and the IC50 [6] is reported as 70 µM.
`C[C@H]1Oc2cc(cnc2N)-c2c(nn(C)c2C#N)CN(C)C(=O)c2ccc(F)cc21` [lorlatinib] gave an IC50 [1] of 1000 nM, an IC50 [2] of 4 nM and an IC50 [3] of 83 µM. The IC50 [4] was 20 nM.
With `C[C@@H](Oc1cc(-c2cnn(C3CCNCC3)c2)cnc1N)c1c(Cl)ccc(F)c1Cl` [crizotinib] the IC50 [1] was 2100 nM, the IC50 [2] was 290 nM and the IC50 [3] was 10.6 µM. The IC50 [4] was 1080 nM.
